Assay results published in patent US20240384350A1, “METHODS OF TREATING CANCER WITH KINASE INHIBITORS” (BOARD OF REGENTS, THE UNIVERSITY OF TEXAS SYSTEM, priority 2021, published 2024).

Experiments:
Test in all cases: Ba/F3 drug screening, Cell Titer Glo, IC50 Mut/WT
Assay type in all cases: cell-based
EGFR L858R/L792H = target: T1, EGFR L858R/L792H (Homo sapiens, UniProt P00533, L792H/L858R); conditions: Ba/F3 cells, EGFR L858R/L792H (PACC), Mut/WT
T1 construct: expressed in transfected cells; host or cells: Ba/F3

EGFR G719A = target: T2, EGFR G719A (Homo sapiens, UniProt P00533, G719A); conditions: Ba/F3 cells, EGFR G719A (PACC), Mut/WT
T2 construct: expressed in transfected cells; host or cells: Ba/F3

EGFR V769L = target: T3, EGFR V769L (Homo sapiens, UniProt P00533, V769L); conditions: Ba/F3 cells, EGFR V769L (PACC), Mut/WT
T3 construct: expressed in transfected cells; host or cells: Ba/F3

EGFR Ex19del T854I = target: T4, EGFR Ex19del T854I (Homo sapiens, UniProt P00533, DEL746-750/T854I); conditions: Ba/F3 cells, EGFR Ex19del T854I (PACC), Mut/WT
T4 construct: expressed in transfected cells; host or cells: Ba/F3 (retroviral transduction, pBabe-Puro based vectors)

EGFR E709K G719S = target: T5, EGFR E709K G719S (Homo sapiens, UniProt P00533, E709K/G719S); conditions: Ba/F3 cells, EGFR E709K G719S (PACC), Mut/WT
T5 construct: expressed in transfected cells; host or cells: Ba/F3

EGFR Ex19del L718V = target: T6, EGFR Ex19del L718V (Homo sapiens, UniProt P00533, DEL746-750/L718V); conditions: Ba/F3 cells, EGFR Ex19del L718V (PACC), Mut/WT
T6 construct: expressed in transfected cells; host or cells: Ba/F3

EGFR Ex19del T790M C797S = target: T7, EGFR Ex19del T790M C797S (Homo sapiens, UniProt P00533, C797S/DEL746-750/T790M); conditions: T790M-like-3R, 72 hours
T7 construct: expressed in transfected cells; host or cells: Ba/F3

EGFR L747S = target: T8, EGFR L747S (Homo sapiens, UniProt P00533, L747S); conditions: Ba/F3 cells, EGFR L747S (PACC), Mut/WT
T8 construct: expressed in transfected cells; host or cells: Ba/F3

EGFR K754E = target: T9, EGFR K754E (Homo sapiens, UniProt P00533, K754E); conditions: Classical-Like, 72 hours
T9 construct: expressed in transfected cells; host or cells: Ba/F3 cells, retroviral pBabe-Puro vector

EGFR Ex19del L718Q = target: T10, EGFR Ex19del L718Q (Homo sapiens, UniProt P00533, DEL746-750/L718Q); conditions: Ba/F3 cells, EGFR Ex19del L718Q (PACC), Mut/WT
T10 construct: expressed in transfected cells; host or cells: Ba/F3

EGFR G719A T790M = target: T11, EGFR G719A T790M (Homo sapiens, UniProt P00533, G719A/T790M); conditions: T790M-like-3S, 72 hours
T11 construct: expressed in transfected cells; host or cells: Ba/F3

EGFR A767insASV = target: T12, EGFR A767insASV (Homo sapiens, UniProt P00533, DUP767-769); conditions: Ex20, 72 hours
T12 construct: expressed in transfected cells; host or cells: Ba/F3 cells, retroviral pBabe-Puro vector

EGFR G724S T790M = target: T13, EGFR G724S T790M (Homo sapiens, UniProt P00533, G724S/T790M); conditions: T790M-like-3R, 72 hours
T13 construct: expressed in transfected cells; host or cells: Ba/F3

EGFR Ex19del G724S = target: T14, EGFR Ex19del G724S (Homo sapiens, UniProt P00533, DEL746-750/G724S); conditions: Ba/F3 cells, EGFR Ex19del G724S (PACC), Mut/WT
T14 construct: expressed in transfected cells; host or cells: Ba/F3

EGFR V774M = target: T15, EGFR V774M (Homo sapiens, UniProt P00533, V774M); conditions: Ba/F3 cells, EGFR V774M (PACC), Mut/WT
T15 construct: host or cells: Ba/F3

EGFR Ex19del/C797S = target: T16, EGFR Ex19del/C797S (Homo sapiens, UniProt P00533, C797S/DEL746-750); conditions: Ba/F3 cells, EGFR Ex19del/C797S (PACC), Mut/WT
T16 construct: expressed in transfected cells; host or cells: Ba/F3

EGFR G724S = target: T17, EGFR G724S (Homo sapiens, UniProt P00533, G724S); conditions: Ba/F3 cells, EGFR G724S (PACC), Mut/WT
T17 construct: expressed in transfected cells; host or cells: Ba/F3

EGFR E709_T710del insD = target: T18, EGFR E709_T710del insD (Homo sapiens, UniProt P00533, DEL709-709/T710D); conditions: Ba/F3 cells, EGFR E709_T710del insD (PACC), Mut/WT
T18 construct: expressed in transfected cells; host or cells: Ba/F3

EGFR Ex19del G796S = target: T19, EGFR Ex19del G796S (Homo sapiens, UniProt P00533, DEL746-750/G796S); conditions: Ba/F3 cells, EGFR Ex19del G796S (PACC), Mut/WT
T19 construct: expressed in transfected cells; host or cells: Ba/F3

EGFR I740dupIPVAK = conditions: Ba/F3 cells, EGFR I740dupIPVAK (PACC), Mut/WT
EGFR S768I/T790M = target: T20, EGFR S768I/T790M (Homo sapiens, UniProt P00533, S768I/T790M); conditions: T790M-like-3S, 72 hours
T20 construct: expressed in transfected cells; host or cells: Ba/F3

EGFR L858R G724S = target: T21, EGFR L858R G724S (Homo sapiens, UniProt P00533, G724S/L858R); conditions: Ba/F3 cells, EGFR L858R G724S (PACC), Mut/WT
T21 construct: expressed in transfected cells; host or cells: Ba/F3 (retroviral transduction, pBabe-Puro based vectors)

EGFR L858R = target: T22, EGFR L858R (Homo sapiens, UniProt P00533, L858R); conditions: Classical-Like, 72 hours
T22 construct: expressed in transfected cells; host or cells: Ba/F3 cells, retroviral pBabe-Puro vector

EGFR L858R T790M L718V = target: T23, EGFR L858R T790M L718V (Homo sapiens, UniProt P00533, L718V/L858R/T790M); conditions: T790M-like-3R, 72 hours
T23 construct: expressed in transfected cells; host or cells: Ba/F3

EGFR R776C = target: T24, EGFR R776C (Homo sapiens, UniProt P00533, R776C); conditions: Ba/F3 cells, EGFR R776C (PACC), Mut/WT
T24 construct: host or cells: Ba/F3

EGFR S768I = target: T25, EGFR S768I (Homo sapiens, UniProt P00533, S768I); conditions: Ba/F3 cells, EGFR S768I (PACC), Mut/WT
T25 construct: expressed in transfected cells; host or cells: Ba/F3

With `C=CC(=O)Nc1cc(Nc2nccc(-c3c[nH]c4ccccc34)n2)c(OC)cc1N(C)CCN(C)C` [AZ5104] the “ratio of the IC50 value for cells with a PACC EGFR mutation to the IC50 value for cells with wildtype EGFR” value (“ratio of the IC50 value for cells” below) (EGFR L858R/L792H) was 4.408, the “ratio of the IC50 value for cells” value (EGFR G719A) was 0.1896 and the “ratio of the IC50 value for cells” value (EGFR V769L) was 1.367. The “ratio of the IC50 value for cells” value (EGFR Ex19del T854I) was 1.699, the “ratio of the IC50 value for cells” value (EGFR E709K G719S) was 0.7973 and the “ratio of the IC50 value for cells” value (EGFR Ex19del L718V) was 1.339. The “ratio of IC50 for cells with mutant EGFR to IC50 for cells with wildtype EGFR (Mut/WT)” value (“ratio of IC50 for cells with mutant EGFR” for short) (EGFR Ex19del T790M C797S) was 56.35, the “ratio of the IC50 value for cells” value (EGFR L747S) was 4.201 and the “ratio of IC50 for cells with mutant EGFR” value (EGFR K754E) was 0.01871. For the same compound, the “ratio of the IC50 value for cells” value (EGFR Ex19del L718Q) was 1.487, the “ratio of IC50 for cells with mutant EGFR” value (EGFR G719A T790M) was 0.1667 and the “ratio of IC50 for cells with mutant EGFR” value (EGFR A767insASV) was 4.661. For the same compound, the “ratio of IC50 for cells with mutant EGFR” value (EGFR G724S T790M) was 0.428, the “ratio of the IC50 value for cells” value (EGFR Ex19del G724S) was 3.178 and the “ratio of the IC50 value for cells” value (EGFR V774M) was 0.5635. The “ratio of the IC50 value for cells” value (EGFR Ex19del/C797S) was 49.96, the “ratio of the IC50 value for cells” value (EGFR G724S) was 36.15 and the “ratio of the IC50 value for cells” value (EGFR E709_T710del insD) was 0.03063. The “ratio of the IC50 value for cells” value (EGFR Ex19del G796S) was 0.8807, the “ratio of the IC50 value for cells” value (EGFR I740dupIPVAK) was 2.234 and the “ratio of IC50 for cells with mutant EGFR” value (EGFR S768I/T790M) was 1.619. The “ratio of the IC50 value for cells” value (EGFR L858R G724S) was 0.001759, the “ratio of IC50 for cells with mutant EGFR” value (EGFR L858R) was 0.1965 and the “ratio of IC50 for cells with mutant EGFR” value (EGFR L858R T790M L718V) was 19.66. For the same compound, the “ratio of the IC50 value for cells” value (EGFR R776C) was 0.1019 and the “ratio of the IC50 value for cells” value (EGFR S768I) was 1.361.
